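Tested at 5 concentrations; 48 h exposure; 96-well plates; endpoints linearly interpolated, else capped at highest concentration. TGI: concentration producing complete growth inhibition.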
Assays:
Assay in all cases: NCI anticancer screen, dose series, 48 h
NCI-H522 lung = test system: NCI-H522 lung
HL-60(TB) leukemia = test system: HL-60(TB) leukemia
HCT-116 colon = test system: HCT-116 colon
SR leukemia = test system: SR leukemia
MALME-3M melanoma = test system: MALME-3M melanoma
M14 melanoma = test system: M14 melanoma
OVCAR-5 ovarian = test system: OVCAR-5 ovarian
RXF 393 renal = test system: RXF 393 renal
HCC-2998 colon = test system: HCC-2998 colon
786-0 renal = test system: 786-0 renal
HT29 colon = test system: HT29 colon
HCT-15 colon = test system: HCT-15 colon
IGROV1 ovarian = test system: IGROV1 ovarian
COLO 205 colon = test system: COLO 205 colon
KM12 colon = test system: KM12 colon
NCI-H460 lung = test system: NCI-H460 lung
SK-MEL-2 melanoma = test system: SK-MEL-2 melanoma
EKVX NSCLC = test system: EKVX NSCLC
T-47D breast = test system: T-47D breast
MOLT-4 leukemia = test system: MOLT-4 leukemia

SMILES	TGI (NCI-H522 lung) [µM]	TGI (HL-60(TB) leukemia) [µM]	TGI (HCT-116 colon) [µM]	TGI (SR leukemia) [µM]	TGI (MALME-3M melanoma) [µM]	TGI (M14 melanoma) [µM]	TGI (OVCAR-5 ovarian) [µM]	TGI (RXF 393 renal) [µM]	TGI (HCC-2998 colon) [µM]	TGI (786-0 renal) [µM]	TGI (HT29 colon) [µM]	TGI (HCT-15 colon) [µM]	TGI (IGROV1 ovarian) [µM]	TGI (COLO 205 colon) [µM]	TGI (KM12 colon) [µM]	TGI (NCI-H460 lung) [µM]	TGI (SK-MEL-2 melanoma) [µM]	TGI (EKVX NSCLC) [µM]	TGI (T-47D breast) [µM]	TGI (MOLT-4 leukemia) [µM]
CN(Cc1cnc2nc(N)nc(N)c2n1)c1ccc(C(=O)NC(CCC(=O)NCCC(P(=O)(O)O)P(=O)(O)O)C(=O)O)cc1 (stereo not given)	> 100	> 100	> 100	> 100	> 100	> 100	> 100	> 100	> 100	> 100	> 100	> 100	> 100	> 100	> 100	> 100	> 100	> 100	> 100	> 100
Nc1ccc(-c2nc3cc(F)ccc3s2)cc1Cl	> 100	> 100	> 100	9.4	67.8	> 100	28.8	> 100	0.0255	> 100	> 100	> 100	42.9	> 100	> 100	25	> 100	> 48.2	> 70.1	> 100
CN1CCN(C(=O)CCNC(=O)Cc2ccc(C(=O)c3ccccc3)cc2)CC1	> 100	> 100	> 100	> 100	> 100	> 100	> 100	> 100	> 100	> 100	> 100	> 100	> 100	> 100	> 100	> 100	> 100	> 100	> 100	> 100
O=C(NCC(=O)N1CCCC1C(=O)OC(=O)C1CCCN1C(=O)CNC(=O)OCc1ccccc1)OCc1ccccc1 (stereo not given)	> 100	70.3	> 100	> 100	64.8	45.7	90.1	64.5	> 100	> 100	79.2	> 100	> 100	33.9	> 100	> 100	44.8	> 100	> 100	67.1
COc1ccc(N2C(=O)CC(C3CC(C(C)(C)C)CCC3=O)C2=O)cc1 (stereo not given)	32.9	> 100	> 100	> 100		> 100		> 100	> 100	> 100	> 100	> 100	> 100	> 100	> 100	> 100		> 100	> 100	> 100
C=C1C(=O)C[C@H]2C(=C)C(=O)O[C@@H]2C2C1CC[C@@]2(C)O (stereo not given in full)	41.4	> 100	> 100	> 100	44.9	33.5	> 100	43.9	38.1	77.7	41.1	69.2	> 100	54.8	> 100	43.1	56.6	> 100	68.8	> 100
CCCCC1=NNC(=O)C1	> 100	> 100	> 100	> 100	> 100	> 100	> 100	> 100	> 100	> 100	> 100	> 100	> 100	> 100	> 100	> 100	> 100	> 100	> 100	> 100
C=C(CCC/C(C)=C/C=C/[C@]1(C)CCCc2ccoc21)CC(=O)O	> 100	> 100	> 100	> 100	> 100	> 100	> 100	> 100	> 100	> 100	> 100	> 100	> 100	> 100	> 100	> 100	> 100	> 100	> 100	> 100
O=c1cnn(C2OC(C(O)CO)C(O)C2O)c(=O)[nH]1 (stereo not given)	> 100	> 100	> 100	> 100	> 100	> 100	> 100	> 100	> 100	> 100	> 100	> 100	> 100	> 100	> 100	> 100	> 100	> 100	> 100	> 100
N=C1/C(=C/c2ccc(F)cc2)C(=O)N=C2SC=NN12	> 100	> 100	> 100	> 100	> 100	> 100	> 100	> 100	> 100	> 100	> 100	> 100	> 100	> 100	> 100	> 100	> 100	> 100	> 100	> 100
COC(=O)CC(C#N)(OP1(=O)OC(c2ccccc2)C(C)N1C)c1ccccc1 (stereo not given)	> 100	58	52.4	74.8	> 100	> 100	69.6	52.3	31.6	83	53.2	> 100	> 100	> 100	48.8	44.4	95	60.3	96.7	59.2
OC1[C@@H]2[C@@H](O)[C@H](O)[C@@H](O)N2C[C@@H]1O (stereo not given in full)	> 100		> 100	> 43.6	> 100	> 100	> 100	> 100	> 100	> 100	> 100	> 100	> 100	> 100	> 100	> 100	> 100	> 100	> 100	> 100
COc1cc(/C=C2\C[C@H]3[C@@H]4CCc5cc(O)ccc5[C@H]4CC[C@]3(C)C2=O)cc(OC)c1OC	3.95		28.6	10.7	13.4	37.7	38.6	24.1	35.9	57.7	25	> 100	32.8	61.5	38.1	> 100	31.9	23.7	38.5	23.1
O=C1C2CC=CCC2C(=O)N1n1c(Cc2ccc(Cl)cc2)n[nH]c1=O (stereo not given)	> 100	> 100	> 100	> 100	> 100	> 100	> 100	> 100	> 100	> 100	> 100	> 100	> 100	> 100	> 100		> 100	> 100	> 100	> 100
CC(=O)Nc1ccc(N2C(=O)/C(=C\c3cccc(Oc4ccccc4)c3)S(=O)(=O)C2c2ccccc2)cc1 (stereo not given)	> 100	56.6	> 100	> 100	> 100	> 100	> 100	> 100	> 100	> 100	> 100	> 100	> 100	> 100	> 100	> 100	> 100	> 100	> 100	98.4
CC(C)CC1C(=O)NCCC(NC(=O)C(Cc2ccc(OC(C)(C)C)cc2)NC(=O)OC(C)(C)C)C(=O)NC(Cc2ccccc2)C(=O)NC(Cc2ccccc2)NC1=O (stereo not given)	35.4	26.9	17.4	72.1	32	32.2	21.2	27.2	35.4	4.92	19.6	> 100	31.7	11.7	> 100	15		39.1	22.2	3.48
CC1(C)CC(=O)c2[nH]c3ccccc3c2CC(=O)NCCc2cn1cn2	> 100		> 100	> 100	> 100	> 100	> 100	> 100	> 100	> 100	> 100	> 100	> 100	> 100	> 100	> 100	> 100	> 100	> 100	> 100
Cc1cc(C)nc(NC(=O)c2ccc(Br)s2)c1	> 100		> 100	> 100	> 100	79.5	62.4	> 100	> 100	> 100	> 100	> 100	> 100	23.5	> 100	> 100	> 100	> 100	> 100	> 100
CC(C)(Cl)C(Br)CCC(C)(Cl)C(Br)CBr (stereo not given)	35.8	35.4	47.5	22.2	41	> 100	48.7	65.9	> 100	61.9	46.8	61.9	65.4	33.8		40.5	35.4	84.2	81.3	> 100
COC(=O)C1=C(C)NC2=C(C(=O)c3ccccc32)C1c1cn(-c2ccccc2)nc1-c1ccccc1 (stereo not given)	> 100	> 100	> 100	> 21.6	> 100	> 100	> 100	> 100	> 100	> 100	> 30.5	> 100	> 100	> 100	> 100		> 100	> 100	> 100	44.6
Nc1ccc(Oc2ccc(C34CC5CC6C3CC3CC4C(C5)C6(c4ccc(Oc5ccc(N)cc5)cc4)C3)cc2)cc1	47.7	22	41.1	40.1	2.81	21.4	> 100	47.8	38.9	45.2	> 100	> 100	> 78.8		> 100	61.2	23.6	> 77.8	> 81.5	28.3
COC(=O)CCC1=CCC2(SC)C(=O)Nc3cccc1c32 (stereo not given)	> 100	> 100	> 100	> 100	> 100	> 100	> 100		> 100	> 100	> 100	> 100	> 100	> 100	> 100	> 100	> 100	> 100	> 100	> 100
COc1ccc(N2C(=O)C(=O)N(c3ccccc3[N+](=O)[O-])C2=S)cc1	24.4	> 100	> 100	> 100	> 100		63.4	52.8	> 100	> 100	> 100	40.5	> 100	44.4	71.9	> 100	46	> 100	74.4	> 100
COC(=O)c1cc2c3c(ccc2[nH]1)N(C(=O)c1cc2cc(OC)c(OC)c(OC)c2[nH]1)CC3CCl (stereo not given)	> 100		> 100	> 100	> 100	> 100	> 100	> 100	> 100	> 52.6	> 75.8	> 100	> 100	> 20.9	> 100	> 100	> 100	> 100	> 100	> 100

Source: PubChem BioAssay (NCI)
